US20240343658A1, “MICRONUTRIENT COMPOSITIONS AND SYSTEMS AND METHODS OF USING SAME” (Winfield Solutions, LLC, priority 2016, published 2024)

Experiment: compatibility with pesticides, modified ASTM E1518-05 (2012) tank mixture test
Type: physicochemical
Conditions: admixture with the zinc-containing adjuvant, after 72 hours
Protocol: The zinc-containing adjuvant compositions of the present disclosure were tested for compatibility with pesticides using a modified approach from ASTM E1518-05 (2012), Standard Practice for Evaluation of Physical Compatibility of Pesticides in Aqueous Tank Mixtures by the Dynamic Shaker Method, ASTM International, West Conshohocken, P A, 2012. The pesticides tested included: glyphosate including in its various forms including Roundup®) PowerMax®, Durango®, Cornerstone® 5 plus, Touchdown Total®, Enlist Duo™ (containing glyphosate and 2,4-D) and MON 76382; 2,4-D; Sterling® Blue; Basagran®; Enginia™.
Materials and Methods: The apparatuses used in compatibility testing included: 1. a graduated cylinder, 120 mL; 2. transfer pipets; 3. balance, +0.01 g; 4. a sieve, U.S. standard, 50 mesh (300 μm), 3 inches in diameter; and 5. a flashlight. […] Synthetic water was made according to CIPAC handbook F section MT18.
The final disposition of the compatibility test was on or around 100 mL, and the ratios needed to bring an application of 10 gallons per acre to 100 mL per acre were calculated. 70 percent of the water needed for the compatibility test was added to the cylinder at room temperature. The remaining components were added for the jar test according to WALES and DALES unless otherwise specified by the product label. Applications rates were used from the product label. […]

## O=C(O)COc1ccc(Cl)cc1Cl [2,4-D, 2,4-Dichlorophenoxyacetic acid]
  compatibility observation: same results as the 24 hour testing
